Experimental data published in patent US11066447B2, “Aureobasidium derivatives and methods of synthesis” (AureoGen Biosciences, Inc., priority 2016, dated 2021).
≈ marks a conversion by molar mass, not a printed value. Like-named read-outs stand apart in the source and are kept apart here. Values belong to the compound of their own block, whether it stands above or below them. Numbered stars: 1 amine (or outer) side, 2 acyl side, 3 side chain; on linkers, the order of the positions; unused ones are H or OH. Square brackets hold non-standard residues; d marks the D form. Peptide text beside a SMILES is read from it. X29 = CN([C@@H](Cc1cccc(-c2ccc(F)cc2)c1)C(=O)[*:2])[*:1]; X34 = CC[C@@H](C)[C@@H](O[*:1])C(=O)[*:2]; Hmp(2R,3S) = CC[C@H](C)[C@@H](O)C(=O)O; NMeVal(β-OH) = CN[C@H](C(=O)O)C(C)(C)O; NMeF = CN[C@@H](Cc1ccccc1)C(=O)O; aIle = CC[C@@H](C)[C@H](N)C(=O)O; NMeV = CN[C@H](C(=O)O)C(C)C

How the values were obtained:
[1] = tested on: C. albicans MMX 2000 ATCC 10231; experiment: MIC assay (CLSI microdilution); format: cell-based
Procedure: (§1) Aureobasidin and test compounds (i.e., AbA derivatives of the present invention) were received from Kalexsyn, Inc. (Kalamazoo, Mich.) as powder and were stored at 4° C. until the day of assay. […] amphotericin was obtained from Sigma Aldrich and stored under like conditions. […] Ethanol (95%) was used as a solvent and diluent for all AbA compounds. Amphotericin B was tested from 0.06-64 μg/mL. Amphotericin B (Sigma Aldrich; St. Louis, Mo.; Cat No. A9528-100MG, Lot No. 120M4087) was dissolved and diluted with dimethylsulfoxide (DMSO; Sigma Aldrich; St. Louis, Mo.; Cat No. 472301 Lot No. SHBD2072V).
(§2) The solvents were added to the test agents and the stock solutions stood for approximately 1 hr at room temperature prior to use to auto sterilize. Stock solutions were prepared at 40× the desired top concentration in the test plate.
(§3) All of the test isolates were originally received from either the American Type Culture Collection (ATCC), clinical labs, or directly from Aureogen Biosciences. Organisms stored by Micromyx were cultured on agar medium appropriate to each organism. Colonies were picked by swab from the isolation plates and put into suspension in appropriate broth containing cryoprotectant. The suspensions were aliquoted into cryogenic vials and maintained at −80° C.
(§4) Prior to testing, Candida isolates were streaked from the frozen vials on Sabouraud dextrose agar. The yeast isolates were incubated for 48 hours at 35° C. before use. The fungal isolates were obtained from enumerated fungal stocks previously prepared at Micromyx and stored in phosphate buffered saline at 4° C.
(§5) Test Media. The medium employed for the MIC assay was RPMI-1640 medium from HyClone Laboratories (Logan, Utah; Lot No. AYB60287A). The medium was prepared according to Clinical and Laboratory Standards Institute (CLSI) guidelines (1, 2), and modified to include 0.002% Tween-80. Candida parapsilosis ATCC 22019 (MMX 2323) and Aspergillus fumigatus ATCC MYA-3626 (MMX 5280) were also tested without Tween-80 to provide data for the quality control of amphotericin B in accordance with CLSI (3) and to assess the effect of Tween-80 on the activity of the test agents.
(§6) Test Procedure. The MIC assay method followed the procedure described by CLSI (1, 2) and employed automated liquid handlers to conduct serial dilutions and liquid transfers. Automated liquid handlers included the Multidrop 384 (Labsystems, Helsinki, Finland), Biomek 2000 and Biomek FX (Beckman Coulter, Fullerton Calif.). The wells in columns 2-12 in standard 96-well microdilution plates (Costar 3795) were filled with 150 μl of the appropriate diluent (95% EtOH for investigational compounds, 100% DMSO for amphotericin B). These assay plates would become the ‘mother plates’ from which the assay ‘daughter plates’ would be prepared. The drugs (300 μL at 40× the desired top concentration in the test plates) were dispensed into the appropriate well in Column 1 of the mother plates. The Biomek 2000 was used to make two-fold serial dilutions through Column 11 in the “mother plate”. The wells of Column 12 contained no drug and served as the organism growth control wells.
(§7) The daughter plates were loaded with 185 μL per well on the Multidrop 384 with RPMI plus 0.002% Tween-80 or RPMI containing no Tween-80 for the testing of the two QC isolates. The daughter plates were prepared on the Biomek FX instrument which transferred 5 μL of drug solution from each well of a mother plate to each corresponding well of each daughter plate in a single step.
(§8) A standardized inoculum of each organism was prepared per CLSI methods (1, 2). For the Candida isolates, colonies were picked from the streak plate and a suspension was prepared in RPMI to equal a 0.5 McFarland standard. This suspension was diluted 1:100 in RPMI resulting in a final concentration of approximately 0.5-2.5×10^3 CFU/mL. […]

[2] = tested on: C. neoformans MMX 0634 ATCC 90112; experiment: MIC assay (CLSI microdilution); format: cell-based
Procedure: as §1, §2, §3, §4, §5, §6, §7, §8

[3] = tested on: C. parapsilosis MMX 2323 ATCC 22019; experiment: MIC assay (CLSI microdilution); format: cell-based, Candida parapsilosis
Procedure: as §1, §2, §3, §4, §5, §6, §7, §8

A. flavus MMX 5948 = experiment: MIC/MEC assay (CLSI microdilution); format: cell-based
Procedure: as §1, §2, §3, §4, §5, §6, §7, §8

A. fumigatus MMX 5944 = experiment: MIC/MEC assay (CLSI microdilution); format: cell-based
Procedure: as §1, §2, §3, §4, §5, §6, §7, §8

[4] = tested on: A. fumigatus MMX 6781 ATCC MYA-4609; experiment: MIC/MEC assay (CLSI microdilution); format: cell-based
Procedure: as §1, §2, §3, §4, §5, §6, §7, §8

[5] = tested on: A. fumigatus MMX 6782 ATCC 13073; experiment: MIC/MEC assay (CLSI microdilution); format: cell-based
Procedure: as §1, §2, §3, §4, §5, §6, §7, §8

[6] = tested on: A. niger MMX 0624 ATCC 16888; experiment: MIC/MEC assay (CLSI microdilution); format: cell-based
Procedure: as §1, §2, §3, §4, §5, §6, §7, §8

[7] = tested on: A. fumigatus MMX 5280 ATCC MYA-3626; experiment: MIC/MEC assay (CLSI microdilution); format: cell-based, Aspergillus fumigatus
Procedure: as §1, §2, §3, §4, §5, §6, §7, §8

[8] = RPMI plus 0.002% Tween-80, 48 hr
[9] = Aspergillus fumigatus, 48 h, RPMI plus 0.002% Tween-80, read-out: MIC

SMILES: CC[C@@H](C)[C@@H]1NC(=O)[C@@H]2CCCN2C(=O)[C@H](Cc2ccccc2)N(C)C(=O)[C@H](Cc2ccccc2)NC(=O)[C@H](C(C)C)N(C)C(=O)[C@@H]([C@H](C)CC)OC(=O)[C@H](C(C)(C)O)N(C)C(=O)[C@H](CC(C)C)NC(=O)[C@H](C(C)C)N(C)C1=O [Aureobasidin A, reference compound] (cyclo(F[NMeF]P[aIle][NMeV]L[NMeVal(β-OH)][X34][NMeV]))
- MIC ([1]; RPMI plus 0.002% Tween-80): ≤0.002 µg/mL
- MIC ([2]; RPMI plus 0.002% Tween-80): 0.06 µg/mL
- MIC ([3]; RPMI plus 0.002% Tween-80): 0.008 µg/mL
- MIC ([3]; Without Tween-80): 0.25 µg/mL (≈ 0.227 µM)
- MEC (A. flavus MMX 5948; [8]): >64/>64 μg/mL
- MIC (A. flavus MMX 5948; [8]): >64/>64 μg/mL
- MEC (A. fumigatus MMX 5944; [8]): 2 µg/mL
- MIC (A. fumigatus MMX 5944; [8]): > 64 µg/mL
- MEC [4, 8]: >64/>64 μg/mL
- MIC [4, 8]: >64/>64 μg/mL
- MEC [5, 8]: 2 µg/mL
- MIC [5, 8]: > 64 µg/mL
- MEC [6, 8]: >64/>64 μg/mL
- MIC [6, 8]: >64/>64 μg/mL
- MEC [7, 8]: >64/>64 μg/mL
- MIC [7, 8]: >64/>64 μg/mL
- MEC ([7]; Without Tween-80, 48 hr): >64/>64 μg/mL
- MIC ([7]; Without Tween-80, 48 hr): >64/>64 μg/mL

- MIC ([1]; Candida albicans, ATCC10231, RPMI plus 0.002% Tween-80, read-out: MIC): 0.015 µg/mL
- MIC ([2]; Cryptococcus neoformans, ATCC90112, RPMI plus 0.002% Tween-80, read-out: MIC): 0.12 µg/mL
- MIC ([3]; ATCC22019, RPMI plus 0.002% Tween-80, read-out: MIC): 0.12 µg/mL
- MIC ([3]; ATCC22019, Without Tween-80, read-out: MIC): 1 µg/mL (≈ 0.836 µM)
- MIC (A. flavus MMX 5948; Aspergillus flavus, MMX5948, 48 h, RPMI plus 0.002% Tween-80, read-out: MIC): > 64 µg/mL
- MIC (A. fumigatus MMX 5944; Aspergillus fumigatus, MMX5944, 48 h, RPMI plus 0.002% Tween-80, read-out: MIC): > 64 µg/mL
- MIC [4, 9]: > 64 µg/mL
- MIC ([5]; Aspergillus fumigatus, ATCC13073, 48 h, RPMI plus 0.002% Tween-80, read-out: MIC): > 64 µg/mL
- MIC ([6]; Aspergillus niger, ATCC16888, 48 h, RPMI plus 0.002% Tween-80, read-out: MIC): 0.25 µg/mL
- MIC [7, 9]: > 64 µg/mL
- MIC ([7]; Aspergillus fumigatus, 48 h, Without Tween-80, read-out: MIC): > 64 µg/mL
SMILES: CC[C@H](C)[C@@H]1NC(=O)[C@@H]2CCCN2C(=O)[C@H](Cc2cccc(-c3ccc(F)cc3)c2)N(C)C(=O)[C@H](Cc2ccccc2)NC(=O)[C@H](C(C)C)N(C)C(=O)[C@@H]([C@@H](C)CC)OC(=O)[C@H](C(C)(C)O)N(C)C(=O)[C@H](CC(C)C)NC(=O)[C@H](C(C)C)N(C)C1=O [Compound 1] (cyclo(F[X29]PI[NMeV]L[NMeVal(β-OH)][Hmp(2R,3S)][NMeV]))
- minimal effective concentration (A. flavus MMX 5948; Aspergillus flavus, MMX5948, 48 h, RPMI plus 0.002% Tween-80): 1 µg/mL
- minimal effective concentration (A. fumigatus MMX 5944; Aspergillus fumigatus, MMX5944, 48 h, RPMI plus 0.002% Tween-80): 0.5 µg/mL
- minimal effective concentration ([4]; Aspergillus fumigatus, RPMI plus 0.002% Tween-80, 48 hr): 0.5 µg/mL
- minimal effective concentration ([5]; Aspergillus fumigatus, ATCC13073, 48 h, RPMI plus 0.002% Tween-80, read-out: MEC): 0.5 µg/mL
- minimal effective concentration ([6]; Aspergillus niger, ATCC16888, 48 h, RPMI plus 0.002% Tween-80, read-out: MEC): 0.25 µg/mL
- minimal effective concentration ([7]; Aspergillus fumigatus, 48 h, RPMI plus 0.002% Tween-80, read-out: MEC): 0.5 µg/mL
- minimal effective concentration ([7]; Aspergillus fumigatus, 48 h, Without Tween-80, read-out: MEC): 2 µg/mL
